Assays:
[1] = 101.33 kPa, Liquid; for electrical conductivity: Alternating current cell with electrodes; for viscosity: Capillary tube (Ostwald / Ubbelohde) method; for speed of sound: Linear variable-path acoustic interferometer; for mass density: Vibrating tube method
[2] = refractive index (Na D-line) (dimensionless); conditions: 101.33 kPa, Liquid, Standard Abbe refractometry

CC(=O)[O-].CCCCn1cc[n+](C)c1 [1-butyl-3-methylimidazolium acetate]
Conditions | electrical conductivity, [1] [S/m] | mass density, [1] [kg/m3] | refractive index, [2] | speed of sound, [1] [m/s] | viscosity, [1] [mPa·s]
283.15 K | 0.0131 | 1061.85 | 1.49925 | 1700 | 1927
288.15 K | 0.0215 | 1058.77 | 1.49781 | 1683 | 1165
293.15 K | 0.0331 | 1055.69 | 1.49634 | 1666 | 736.6
298.15 K | 0.049 | 1052.63 | 1.49488 | 1650 | 485.1
303.15 K | 0.0699 | 1049.61 | 1.49342 | 1635 | 330.9
308.15 K | 0.0968 | 1046.6 | 1.49197 | 1621 | 233
313.15 K | 0.131 | 1043.59 | 1.49053 | 1608 | 168.7
318.15 K | 0.172 | 1040.59 | 1.48909 | 1595 | 125.2
323.15 K | 0.221 | 1037.58 | 1.48765 | 1582 | 95.05
328.15 K | – | 1034.58 | 1.48619 | 1570 | 73.63
333.15 K | – | 1031.59 | 1.48477 | 1558 | 58.09
338.15 K | – | 1028.61 | 1.48332 | 1546 | 46.57
343.15 K | – | 1025.64 | 1.48189 | 1534 | 37.91

Reference: the NIST ThermoML archive (doi:10.1016/j.jct.2012.07.022)
